The test has as its target human F508del-CFTR (Homo sapiens, UniProt P13569, DEL508-508). Description: F508del-CFTR cell surface expression (corrector activity), DiscoveRx ß-galactosidase complementation chemiluminescence assay in recombinant U2OS cell line.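 As to all read-outs here: U2OS cells co-expressing ProLink-tagged F508del-CFTR and a membrane-anchored enzyme acceptor, where more surface CFTR restores β-galactosidase activity measured by chemiluminescence.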 Particulars: for EC50: EC50, F508del-CFTR cell surface expression; for Emax: U2OS.
The mark [1] stands for this setting: U2OS cells, 16h compound incubation, geomean values.
The mark [2] stands for this setting: in relation to Emax of corrector lumacaftor (=100%), arithmetic mean values.
The mark [3] stands for this setting: U2OS cell line, 16h compound incubation, geomean values.
[4] abbreviates: in relation to the Emax of the corrector lumacaftor (=100%), U2OS cell line, 16h compound incubation, arithmetic mean values.

Each structure is given as a SMILES string.

A word on the EC50: it is the concentration at which the effect is half-maximal. The term Emax denotes the maximal effect, on the per cent scale that the assay sets.

Sequence of human F508del-CFTR (P13569 with tags, fused parts or gaps DEL508-508): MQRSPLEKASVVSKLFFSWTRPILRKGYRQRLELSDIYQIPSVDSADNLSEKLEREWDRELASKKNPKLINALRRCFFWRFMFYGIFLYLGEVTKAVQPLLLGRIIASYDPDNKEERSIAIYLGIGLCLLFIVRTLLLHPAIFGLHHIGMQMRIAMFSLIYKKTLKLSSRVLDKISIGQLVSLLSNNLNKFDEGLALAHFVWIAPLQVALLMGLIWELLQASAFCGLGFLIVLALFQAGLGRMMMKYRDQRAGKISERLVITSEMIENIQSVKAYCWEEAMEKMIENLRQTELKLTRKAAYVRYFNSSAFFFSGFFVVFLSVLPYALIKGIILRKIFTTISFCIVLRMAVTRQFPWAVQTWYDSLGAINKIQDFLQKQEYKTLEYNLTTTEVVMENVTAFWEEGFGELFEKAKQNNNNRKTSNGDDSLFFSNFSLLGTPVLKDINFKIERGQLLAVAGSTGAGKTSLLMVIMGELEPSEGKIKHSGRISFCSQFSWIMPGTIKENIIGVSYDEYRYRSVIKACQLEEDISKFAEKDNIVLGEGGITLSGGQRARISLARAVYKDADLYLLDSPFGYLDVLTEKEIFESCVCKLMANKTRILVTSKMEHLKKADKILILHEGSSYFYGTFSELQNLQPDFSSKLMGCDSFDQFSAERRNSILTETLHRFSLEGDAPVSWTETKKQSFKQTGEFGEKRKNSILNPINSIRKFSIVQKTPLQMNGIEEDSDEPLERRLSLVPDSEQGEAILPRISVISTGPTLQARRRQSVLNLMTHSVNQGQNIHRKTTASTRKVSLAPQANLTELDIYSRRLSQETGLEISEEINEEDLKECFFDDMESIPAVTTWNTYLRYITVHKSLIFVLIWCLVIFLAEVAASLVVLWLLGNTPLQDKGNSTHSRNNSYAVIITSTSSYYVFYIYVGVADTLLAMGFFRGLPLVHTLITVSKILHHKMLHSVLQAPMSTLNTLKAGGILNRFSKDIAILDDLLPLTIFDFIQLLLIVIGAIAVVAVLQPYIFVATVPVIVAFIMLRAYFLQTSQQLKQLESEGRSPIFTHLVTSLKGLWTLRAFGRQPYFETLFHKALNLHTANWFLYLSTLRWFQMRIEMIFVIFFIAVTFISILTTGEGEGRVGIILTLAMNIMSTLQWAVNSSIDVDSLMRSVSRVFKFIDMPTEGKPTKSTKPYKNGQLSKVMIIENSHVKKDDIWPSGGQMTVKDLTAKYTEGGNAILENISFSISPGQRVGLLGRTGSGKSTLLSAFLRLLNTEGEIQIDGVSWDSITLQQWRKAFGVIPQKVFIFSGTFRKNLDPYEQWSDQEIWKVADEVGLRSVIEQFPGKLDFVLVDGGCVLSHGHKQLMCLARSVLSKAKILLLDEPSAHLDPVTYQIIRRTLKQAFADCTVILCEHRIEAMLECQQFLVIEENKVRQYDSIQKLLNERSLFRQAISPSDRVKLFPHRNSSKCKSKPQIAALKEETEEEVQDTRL

On to `COc1cccc(CCNC(=O)[C@@H]2CC(=O)N(C)[C@@H](CC(C)C)C(=O)N3CCOC[C@H]3C(=O)N[C@H](Cc3ccccc3)COc3ccc4c(C)noc4c3C(=O)N2)c1` (mixture of isomers) [Example 624, (4aRS,7R,17S,21S)-7-benzyl-21-isobutyl-N-(3-methoxyphenethyl)-12,20-dimethyl-5,15,19,22-tetraoxo-1,2,4,4a,5,6,7,8,15,16,17,18,19,20,21,22-hexadecahydroisoxazolo[4′,5′:5,6]benzo[1,2-p][1,4]oxazino[3,4-f][1]oxa[4,7,10,14]tetraazacycloheptadecine-17-carboxamide], for which, under setting [1], the concentration for a half-maximal effect (EC50) worked out at 921 nM. The Emax under setting [2] was determined as 171%. On the same counts, the results for `COc1cc2c(cn1)OC[C@@H](Cc1ccccc1)NC(=O)[C@@H]1CCCCN1C(=O)[C@H](CC(C)C)N(C)C(=O)C[C@@H](C(=O)NCCc1cc(C3CC3)no1)NC2=O` (mixture of isomers) [Example 652, (7S,11S,17aRS,20R)-20-benzyl-N-(2-(3-cyclopropylisoxazol-5-yl)ethyl)-11-isobutyl-3-methoxy-10-methyl-5,9,12,18-tetraoxo-5,6,7,8,9,10,11,12,15,16,17,17a,18,19,20,21-hexadecahydro-14H-dipyrido[2,1-f:4′,3′-p][1]oxa[4,7,10,14]tetraazacycloheptadecine-7-carboxamide] are 593 nM and 155%. `COc1cccc(CCNC(=O)[C@@H]2CC(=O)N(C)[C@@H](CC(C)C)C(=O)N(C)[C@@H](COC(C)(C)C)C(=O)N[C@H](Cc3ccccc3)COc3ccc4ccccc4c3C(=O)N2)c1` (mixture of isomers) [Example 717, (3S,7S,10RS,13R)-13-benzyl-10-(tert-butoxymethyl)-7-isobutyl-N-(3-methoxyphenethyl)-6,9-dimethyl-1,5,8,11-tetraoxo-1,2,3,4,5,6,7,8,9,10,11,12,13,14-tetradecahydronaphtho[1,2-p][1]oxa[4,7,10,14]tetraazacycloheptadecine-3-carboxamide]: the EC50 under setting [1] is 69 nM. In addition, the Emax under setting [2] stood at 348%. Consider `COc1cccc(CCNC(=O)[C@@H]2CC(=O)N(C)[C@@H](CC(C)C)C(=O)N(C)[C@@H](CO)C(=O)N[C@H](Cc3ccccc3)COc3ccc4ccccc4c3C(=O)N2)c1` (mixture of isomers) [Example 718, (3S,7S,10RS,13R)-13-benzyl-10-(hydroxymethyl)-7-isobutyl-N-(3-methoxyphenethyl)-6,9-dimethyl-1,5,8,11-tetraoxo-1,2,3,4,5,6,7,8,9,10,11,12,13,14-tetradecahydronaphtho[1,2-p][1]oxa[4,7,10,14]tetraazacycloheptadecine-3-carboxamide], for which the half-maximal effective concentration (EC50) under setting [1] worked out at 359 nM.

As for `COc1cc(CCNC(=O)[C@@H]2CC(=O)N(C)[C@@H](CC(C)C)C(=O)N(C)[C@@H](CC(F)(F)F)C(=O)N[C@H](Cc3ccccc3)COc3ccc4nc(C)oc4c3C(=O)N2)on1` (mixture of isomers) [Example 974, (8R,11RS,14S,18S)-8-benzyl-14-isobutyl-N-(2-(3-methoxyisoxazol-5-yl)ethyl)-2,12,15-trimethyl-10,13,16,20-tetraoxo-11-(2,2,2-trifluoroethyl)-7,8,9,10,11,12,13,14,15,16,17,18,19,20-tetradecahydrooxazolo[4′,5′:5,6]benzo[1,2-p][1]oxa[4,7,10,14]tetraazacycloheptadecine-18-carboxamide], the EC50 (U2OS cells, 16h compound incubation, geomean of several measurements) turned out to be 703 nM. Further, the maximal effect (Emax) (in relation to the Emax of the corrector lumacaftor (=100%), U2OS cells, 16h compound incubation, arithmetic mean) stood at 440%. On to `CC(C)C[C@H]1C(=O)N(CCC(C)(C)C)CC(=O)N[C@H](Cc2ccccc2)COc2cc3c(cc2C(=O)N[C@H](C(=O)NCCc2ccc4c(c2)OCO4)CC(=O)N1C)OCO3` (racemic) [Example 1, (7R,13S,17RS)-N-(2-(benzo[d][1,3]dioxol-5-yl)ethyl)-7-benzyl-11-(3,3-dimethylbutyl)-13-isobutyl-14-methyl-9,12,15,19-tetraoxo-6,7,8,9,10,11,12,13,14,15,16,17,18,19-tetradecahydro-[1,3]dioxolo[4′,5′:4,5]benzo[1,2-p][1]oxa[4,7,10,14]tetraazacycloheptadecine-17-carboxamide], for which, under setting [3], the EC50 was determined as 56 nM. Moreover, under setting [4], the maximal response (Emax) amounted to 105%. On the same counts, the results for `CC(C)C[C@H]1C(=O)N(CCc2ccccc2)CC(=O)N[C@H](Cc2ccccc2)COc2cc3c(cc2C(=O)N[C@H](C(=O)NCCc2ccc4c(c2)OCO4)CC(=O)N1C)OCO3` (racemic) [Example 5, (7R,13S,17RS)-N-(2-(benzo[d][1,3]dioxol-5-yl)ethyl)-7-benzyl-13-isobutyl-14-methyl-9,12,15,19-tetraoxo-11-phenethyl-6,7,8,9,10,11,12,13,14,15,16,17,18,19-tetradecahydro-[1,3]dioxolo[4′,5′:4,5]benzo[1,2-p][1]oxa[4,7,10,14]tetraazacycloheptadecine-17-carboxamide] are 369 nM and 109%.

For `CC(C)C[C@H]1C(=O)N(CCCOCc2ccccc2)CC(=O)N[C@H](Cc2ccccc2)COc2cc3c(cc2C(=O)N[C@H](C(=O)NCCc2ccc4c(c2)OCO4)CC(=O)N1C)OCO3` (racemic) [Example 6, (7R,13S,17RS)-N-(2-(benzo[d][1,3]dioxol-5-yl)ethyl)-7-benzyl-11-(3-(benzyloxy)propyl)-13-isobutyl-14-methyl-9,12,15,19-tetraoxo-6,7,8,9,10,11,12,13,14,15,16,17,18,19-tetradecahydro-[1,3]dioxolo[4′,5′:4,5]benzo[1,2-p][1]oxa[4,7,10,14]tetraazacycloheptadecine-17-carboxamide], the EC50 under setting [3] came out at 420 nM. In addition, the maximal effect (Emax) under setting [4] was 112%.

With `COc1cc2c(cc1OC)C(=O)N[C@H](C(=O)NCCc1ccc3c(c1)OCO3)CC(=O)N(C)[C@@H](CC1CC1)C(=O)N(CCC1CCCCC1)CC(=O)N[C@H](Cc1ccccc1)CO2` (racemic) [Example 9, (3R,9S,13RS)-N-(2-(benzo[d][1,3]dioxol-5-yl)ethyl)-3-benzyl-7-(2-cyclohexylethyl)-9-(cyclopropylmethyl)-17,18-dimethoxy-10-methyl-5,8,11,15-tetraoxo-2,3,4,5,6,7,8,9,10,11,12,13,14,15-tetradecahydrobenzo[p][1]oxa[4,7,10,14]tetraazacycloheptadecine-13-carboxamide], the half-maximal effective concentration (EC50) under setting [3] was found to be 360 nM. For the same compound, the Emax under setting [4] turned out to be 130%.

Take `COc1cc2c(cc1OC)C(=O)N[C@H](C(=O)NCCc1ccc3c(c1)OCO3)CC(=O)N(C)[C@@H](CC1CCCC1)C(=O)N(CCC1CCCCC1)CC(=O)N[C@H](Cc1ccccc1)CO2` (racemic) [Example 10, (3R,9S,13RS)-N-(2-(benzo[d][1,3]dioxol-5-yl)ethyl)-3-benzyl-7-(2-cyclohexylethyl)-9-(cyclopentylmethyl)-17,18-dimethoxy-10-methyl-5,8,11,15-tetraoxo-2,3,4,5,6,7,8,9,10,11,12,13,14,15-tetradecahydrobenzo[p][1]oxa[4,7,10,14]tetraazacycloheptadecine-13-carboxamide]: the concentration giving a half-maximal response (EC50) under setting [3] came out at 82 nM. In addition, under setting [4], the maximum response (Emax) is 123%. With `COc1cccc2c1C(=O)N[C@H](C(=O)NCCc1ccc3c(c1)CCCO3)CC(=O)N(C)[C@@H](CC(C)C)C(=O)N(CCC1CCCCC1)CC(=O)N[C@H](Cc1ccccc1)CO2` (racemic) [Example 11, (3R,9S,13RS)-3-benzyl-N-(2-(chroman-6-yl)ethyl)-7-(2-cyclohexylethyl)-9-isobutyl-16-methoxy-10-methyl-5,8,11,15-tetraoxo-2,3,4,5,6,7,8,9,10,11,12,13,14,15-tetradecahydrobenzo[p][1]oxa[4,7,10,14]tetraazacycloheptadecine-13-carboxamide], under setting [4], the Emax came to 132%.

(Values after patent US20240208992A1, “MACROCYCLES AS CFTR MODULATORS” (Idorsia Pharmaceuticals Ltd, priority 2021, published 2024).)
